Assay: Lipophilicity, log P of the compound
Format: physicochemical
Settings: octanol/water

| logP (read-out: logP) | SMILES | logP |
| --- | --- | --- |
|  | CC(C)Oc1cc(-n2nc(C(C)(C)C)oc2=O)c(Cl)cc1Cl [OXADIAZON] | 4.78 |
| 4.68 | CC(Cl)/C=C/C(=O)N(Cc1ccc(Cl)cc1)CC(C)C (configuration not stated) |  |
